Measured values taken from PMC8185113, “Critical angle reflection imaging for quantification of molecular interactions on glass surface” (Nature Communications, 2021).

Columns and labels:
[1] = target: T1, nicotinic acetylcholine receptor (nAChR), human α4β2 receptor on SH-EP1_α4β2 cells (Homo sapiens, UniProt P17787+P43681); assay: acetylcholine binding to nAChR on SH-EP1_α4β2 cells measured by SPR; details: SH-EP1_α4β2 cells on gold; 50, 100, 200 nM
T1 construct: expressed in transfected cells; host or cells: SH-EP1 cells (SH-EP1_α4β2), gift from Dr. Jie Wu
Experimental: (§1) Most drugs are small molecules, and over 50% drug targets are membrane proteins.
(§2) CAR angle was set at 61.6 degrees with a sensitivity of 112 RIU^−1. The binding kinetic curves (black) were obtained by averaging the CAR response of seven cells and globally fitted to the first-order kinetics (red) (see Supplementary Figure 12b for the response of individual cells).
(§3) All the cell-related experiments including CAR, SPR, transmitted and fluorescence measurements (Figs. 4–6) were performed on an objective-based SPR microscope setup, which consisted of an inverted microscope (Olympus IX-81) and a ×60 (NA 1.49) oil-immersion objective. The light source for CAR and SPR imaging was a superluminescent light-emitting diode (SLED) (SLD-260-HP-TOW-PD-670, Superlum, Ireland) with 670 nm wavelength and 1 mW power set by a SLED current driver (PILOT4-AC, Superlum). The SLED was mounted on a translation stage (PT3, Thorlabs) with a motorized actuator (Z825B, Thorlabs) for adjusting incident angle. […] The light source for transmitted and fluorescence imaging were the stocking halogen and mercury lamp of the microscope, respectively. The excitation and emission wavelength used for imaging Alexa Fluor 488 labelled WGA were 488 nm and 518 nm, respectively, and the power density on the sample was ~0.1 mW/cm^2. A CMOS camera (ORCA-Flash 4.0, Hamamatsu) was used to record the images. […]

[2] = target: T1, nicotinic acetylcholine receptor (nAChR), human α4β2 receptor on SH-EP1_α4β2 cells; assay: acetylcholine binding to nAChR on fixed SH-EP1_α4β2 cells measured by CAR imaging; details: 61.6 degrees, average of seven cells, global fit
Experimental: as §1, §2, §3

wild-type SH-EP1 cells = assay: control: acetylcholine on wild-type SH-EP1 cells (no nAChR) measured by CAR; assay type: binding; details: wild-type SH-EP1 cells without nAChR, 50, 100, 200 nM
Experimental: as §1, §2, §3

T1 sequence (P43681 29-627 limits assumed): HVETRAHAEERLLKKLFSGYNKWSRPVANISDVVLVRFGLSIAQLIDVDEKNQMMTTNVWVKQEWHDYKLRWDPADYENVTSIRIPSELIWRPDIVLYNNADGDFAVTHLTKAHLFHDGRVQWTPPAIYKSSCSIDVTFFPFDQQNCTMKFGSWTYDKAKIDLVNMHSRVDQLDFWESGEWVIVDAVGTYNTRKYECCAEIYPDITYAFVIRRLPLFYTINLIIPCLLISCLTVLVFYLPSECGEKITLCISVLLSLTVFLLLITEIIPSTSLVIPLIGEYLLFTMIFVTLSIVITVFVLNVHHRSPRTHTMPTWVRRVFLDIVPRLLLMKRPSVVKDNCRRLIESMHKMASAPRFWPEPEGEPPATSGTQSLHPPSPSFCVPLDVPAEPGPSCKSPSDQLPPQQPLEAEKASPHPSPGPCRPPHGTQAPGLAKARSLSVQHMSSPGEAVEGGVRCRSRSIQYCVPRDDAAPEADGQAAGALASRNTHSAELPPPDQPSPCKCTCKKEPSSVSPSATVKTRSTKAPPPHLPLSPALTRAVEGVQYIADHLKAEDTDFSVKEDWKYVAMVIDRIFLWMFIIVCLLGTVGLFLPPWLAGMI
T1 sequence (P17787 26-502): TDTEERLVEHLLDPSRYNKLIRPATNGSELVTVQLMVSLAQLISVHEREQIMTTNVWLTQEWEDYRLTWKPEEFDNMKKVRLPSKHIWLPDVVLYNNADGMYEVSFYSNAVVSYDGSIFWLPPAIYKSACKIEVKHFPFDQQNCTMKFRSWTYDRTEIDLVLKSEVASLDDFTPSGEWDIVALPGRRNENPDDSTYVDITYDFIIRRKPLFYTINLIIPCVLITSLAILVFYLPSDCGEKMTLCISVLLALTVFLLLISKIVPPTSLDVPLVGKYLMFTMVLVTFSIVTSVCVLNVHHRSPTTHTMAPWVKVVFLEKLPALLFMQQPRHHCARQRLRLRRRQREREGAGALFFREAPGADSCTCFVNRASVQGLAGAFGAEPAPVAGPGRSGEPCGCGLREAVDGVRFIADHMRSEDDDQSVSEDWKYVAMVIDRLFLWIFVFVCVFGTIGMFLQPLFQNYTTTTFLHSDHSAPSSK

With `CC(=O)OCC[N+](C)(C)C` [acetylcholine] the SPR response [1] was “no measurable response”, the kd [2] was “(1.5±0.1)×10^-3 s^-1” and the CAR response (wild-type SH-EP1 cells) was “negligible”. For the same compound, the CAR response (wild-type SH-EP1 cells; listed as Acetylcholine) was “No clear CAR response”.
